The data set relates to CCRIS mutagenicity, Ames/micronucleus/aberration tests. In words: CCRIS mutagenicity studies.
The mark [1] stands for this setting: Test System: AMES SALMONELLA TYPHIMURIUM, Strain/Indicator: TA98, Metabolic Activation: RAT, LIVER, S-9, AROCLOR 1254, Method: STANDARD PLATE.
The mark [2] stands for this setting: Test System: AMES SALMONELLA TYPHIMURIUM, Strain/Indicator: TA100, Metabolic Activation: RAT, LIVER, S-9, AROCLOR 1254, Method: STANDARD PLATE.
[3] abbreviates: Test System: MOUSE LYMPHOMA, Strain/Indicator: L5178Y (TK+/TK-), Metabolic Activation: NONE, Method: SUSPENSION/PLATE.
Where [4] appears, read: Test System: AMES SALMONELLA TYPHIMURIUM, Strain/Indicator: TA100, Metabolic Activation: NONE, Method: PREINCUBATION
[5] abbreviates: Test System: AMES SALMONELLA TYPHIMURIUM, Strain/Indicator: TA100, Metabolic Activation: RAT, LIVER, S-9, PCB, Method: PREINCUBATION
The mark [6] stands for this setting: Test System: AMES SALMONELLA TYPHIMURIUM, Strain/Indicator: TA98, Metabolic Activation: NONE, Method: PREINCUBATION
Setting [7] is: Test System: AMES SALMONELLA TYPHIMURIUM, Strain/Indicator: TA98, Metabolic Activation: RAT, LIVER, S-9, PCB, Method: PREINCUBATION
Where [8] appears, read: Test System: AMES SALMONELLA TYPHIMURIUM, Strain/Indicator: TA100, Metabolic Activation: RAT, LIVER, S-9, PHENOBARBITAL, Method: PREINCUBATION

Calls of active or inactive are those of the source. How the calls were made is not given here.

As to `ClC1=C(Cl)[C@]2(Cl)[C@@H]3[C@@H]4C[C@@H]([C@H]5O[C@@H]45)[C@@H]3[C@@]1(Cl)C2(Cl)Cl`, the mutagenic call reads like this: (End Point: IN VITRO CHROMOSOMAL ABERRATIONS, Test System: CHINESE HAMSTER OVARY CELLS, Metabolic Activation: NONE) “inactive; negative”; (End Point: IN VITRO CHROMOSOMAL ABERRATIONS, Test System: CHINESE HAMSTER OVARY CELLS, Metabolic Activation: RAT, LIVER, S-9, AROCLOR 1254) “inactive; negative; precipitation occurred at all doses”; (Test System: AMES SALMONELLA TYPHIMURIUM, Strain/Indicator: TA97, Metabolic Activation: NONE, Method: STANDARD PLATE) “inactive; negative”; (Test System: AMES SALMONELLA TYPHIMURIUM, Strain/Indicator: TA97, Metabolic Activation: RAT, LIVER, S-9, AROCLOR 1254, Method: STANDARD PLATE) “inactive; negative”; (Test System: AMES SALMONELLA TYPHIMURIUM, Strain/Indicator: TA98, Metabolic Activation: NONE, Method: STANDARD PLATE) “inactive; negative”; under setting [1], “inactive; negative”. For the same compound, the mutagenic call reads like this: (Test System: AMES SALMONELLA TYPHIMURIUM, Strain/Indicator: TA100, Metabolic Activation: NONE, Method: STANDARD PLATE) “inactive; negative”; under setting [2], “inactive; negative”; (Test System: AMES SALMONELLA TYPHIMURIUM, Strain/Indicator: TA102, Metabolic Activation: NONE, Method: STANDARD PLATE) “inactive; negative”; (Test System: AMES SALMONELLA TYPHIMURIUM, Strain/Indicator: TA102, Metabolic Activation: RAT, LIVER, S-9, AROCLOR 1254, Method: STANDARD PLATE) “inactive; negative”; (Test System: CHINESE HAMSTER V-79, Strain/Indicator: V-79/OUABAIN, Metabolic Activation: NONE, Method: STANDARD PLATE) “active; positive”; under setting [3], “active; positive”.

On to `CCCCN(C[C@H](CO)OCc1ccccc1)N=O`, for which the mutagenic call under setting [4] was “inactive; negative” and the mutagenic call under setting [5] is “active; positive”.

With `Oc1cc2ccccc2c2cc3c(ccc4ccccc43)nc12`, the mutagenic call is “inactive; negative” (Test System: AMES SALMONELLA TYPHIMURIUM, Strain/Indicator: TA100, Metabolic Activation: GUINEA PIG, LIVER, S-9, 3-METHYLCHOLANTHRENE, Method: STANDARD PLATE) and “inactive; negative” (Test System: CHINESE HAMSTER V-79, Strain/Indicator: V-79/6-THIOGUANINE, Metabolic Activation: GUINEA PIG, LIVER, S-9, 3-METHYLCHOLANTHRENE).

Take `NC(CO)C(=O)O` (stereo not given): the mutagenic call (Test System: AMES SALMONELLA TYPHIMURIUM, Strain/Indicator: TA98, Metabolic Activation: RAT LIVER S-9, CHLOROPHENE, Method: STANDARD PLATE (COMPOUND HEATED AT 250 DEGREES CELSIUS FOR 20 MIN)) is “inactive; negative”.

Regarding `O=C(O)c1ccc(/C=C/c2ccc([N+](=O)[O-])o2)cc1`, the mutagenic call is, setting by setting: under setting [6], “active; positive”; under setting [7], “active; positive”; under setting [4], “active; positive”; under setting [5], “active; positive”.

On to `CCCCC/C=C\C/C=C\C/C=C\C/C=C\CCCC(=O)O`, for which the mutagenic call (Test System: CHINESE HAMSTER V-79, Strain/Indicator: V-79/6-THIOGUANINE, Metabolic Activation: NONE) was “active; positive”.

For the compound `Cc1nc2ccc(N)c(C)c2nc1C`, the mutagenic call is “inactive; negative” under setting [6], “active; positive” under setting [7], “inactive; negative” under setting [4] and “active; positive” under setting [5].

For `Cc1cc(O)ccc1N`, the mutagenic call runs as follows: under setting [3], “active; positive. reevaluation of results: equivocal”; (Test System: MOUSE LYMPHOMA, Strain/Indicator: L5178Y (TK+/TK-), Metabolic Activation: RAT, LIVER, S-9, AROCLOR 1254, Method: SUSPENSION/PLATE) “inactive; negative. reevaluation of results: inconclusive”.

For `CCCCCC[C@H](C/C=C\CCCCCCCC(=O)OC)OC(C)=O`, the mutagenic call (Test System: AMES SALMONELLA TYPHIMURIUM, Strain/Indicator: TA97, Metabolic Activation: NONE, Method: PREINCUBATION) is “inactive; negative”; the mutagenic call (Test System: AMES SALMONELLA TYPHIMURIUM, Strain/Indicator: TA97, Metabolic Activation: RAT, LIVER, S-9, AROCLOR 1254, Method: PREINCUBATION) is “inactive; negative”; the mutagenic call (Test System: AMES SALMONELLA TYPHIMURIUM, Strain/Indicator: TA102, Metabolic Activation: NONE, Method: PREINCUBATION) is “inactive; negative”; the mutagenic call (Test System: AMES SALMONELLA TYPHIMURIUM, Strain/Indicator: TA102, Metabolic Activation: RAT, LIVER, S-9, AROCLOR 1254, Method: PREINCUBATION) was “inactive; negative”.

Consider `Cc1cccc2cc3c(cc12)-c1cccc2cccc-3c12`, for which, under “Test System: AMES SALMONELLA TYPHIMURIUM, Strain/Indicator: TA100, Metabolic Activation: RAT, LIVER, S-9, AROCLOR 1254”, the mutagenic call was “active; positive”.

`N[C@@H](CCC(=O)N[C@@H](CS/C(Cl)=C\Cl)C(=O)NCC(=O)O)C(=O)O`: the mutagenic call was “active; positive” (Test System: AMES SALMONELLA TYPHIMURIUM, Strain/Indicator: TA2638, Metabolic Activation: NONE, Method: PREINCUBATION); “active; positive” (Test System: AMES SALMONELLA TYPHIMURIUM, Strain/Indicator: TA2638, Metabolic Activation: RAT, KIDNEY, CYTOSOL, Method: PREINCUBATION); “active; positive” (Test System: AMES SALMONELLA TYPHIMURIUM, Strain/Indicator: TA2638, Metabolic Activation: RAT, KIDNEY, MICROSOMES, Method: PREINCUBATION); “active; positive” (Test System: AMES SALMONELLA TYPHIMURIUM, Strain/Indicator: TA2638, Metabolic Activation: RAT, KIDNEY, MITOCHONDRIA, Method: PREINCUBATION).

For the compound `Cc1ccccc1N=Nc1ccc(N)c(C)c1N`, the mutagenic call runs as follows: (Test System: AMES SALMONELLA TYPHIMURIUM, Strain/Indicator: TA100, Metabolic Activation: HUMAN, LIVER, S-9, Method: PREINCUBATION) “active; positive”; (Test System: AMES SALMONELLA TYPHIMURIUM, Strain/Indicator: TA100, Metabolic Activation: RAT, LIVER, S-9, BETA-NAPHTHOFLAVONE, Method: PREINCUBATION) “active; positive”; under setting [8], “active; positive”; (Test System: AMES SALMONELLA TYPHIMURIUM, Strain/Indicator: TA100, Metabolic Activation: RAT, LIVER, S-9, Method: PREINCUBATION) “active; positive”; (Test System: UDS RODENT HEPATOCYTES, Strain/Indicator: THY INCORP, Metabolic Activation: NONE, Method: AUTORADIOGRAPHY) “active; positive”.

As to `c1ccc2c(c1)ccc1cc3cnccc3cc12`, the mutagenic call reads like this: under setting [1], “active; positive”; under setting [2], “active; positive”.

For the compound `Cc1c([N+](=O)[O-])ccc2ccccc12`, the mutagenic call under setting [6] was “active; positive”.

Turning to `CC[C@H]1OC(=O)[C@H](C)[C@@H](O[C@H]2C[C@@](C)(OC)[C@@H](O)[C@H](C)O2)[C@H](C)[C@@H](O[C@@H]2O[C@H](C)C[C@H](N(C)C)[C@H]2O)[C@](C)(O)C[C@@H](C)/C(=N\OCOCCOC)[C@H](C)[C@@H](O)[C@]1(C)O`, the mutagenic call reads like this: under setting [6], “inactive; negative”; (Test System: AMES SALMONELLA TYPHIMURIUM, Strain/Indicator: TA98, Metabolic Activation: RAT, LIVER, S-9, PHENOBARBITAL, Method: PREINCUBATION) “inactive; negative”; under setting [4], “inactive; negative”; under setting [8], “inactive; negative”; (Test System: AMES SALMONELLA TYPHIMURIUM, Strain/Indicator: TA1535, Metabolic Activation: NONE, Method: PREINCUBATION) “inactive; negative”; (Test System: AMES SALMONELLA TYPHIMURIUM, Strain/Indicator: TA1535, Metabolic Activation: RAT, LIVER, S-9, PHENOBARBITAL, Method: PREINCUBATION) “inactive; negative”. In addition, the mutagenic call was “inactive; negative” (Test System: AMES SALMONELLA TYPHIMURIUM, Strain/Indicator: TA1537, Metabolic Activation: NONE, Method: PREINCUBATION); “inactive; negative” (Test System: AMES SALMONELLA TYPHIMURIUM, Strain/Indicator: TA1537, Metabolic Activation: RAT, LIVER, S-9, PHENOBARBITAL, Method: PREINCUBATION); “inactive; negative” (Test System: E. COLI, Strain/Indicator: WP2 UVRA, Metabolic Activation: NONE, Method: PREINCUBATION); “inactive; negative” (Test System: E. COLI, Strain/Indicator: WP2 UVRA, Metabolic Activation: RAT, LIVER, S-9, PHENOBARBITAL, Method: PREINCUBATION).

These data come from PubChem BioAssay AID1259407 (Chemical Carcinogenesis Research Information System (CCRIS), 2018).
